Measured values reported in patent US8044074B2, “Substituted heterocycles, their use as medicament, and pharmaceutical preparations comprising them” (Sanofi-Aventis, priority 2005, dated 2011).

Each compound was assayed against Human TASK-1 channels (UniProt O14649) (assay: Activity on the TASK-1 channel, two-microelectrode voltage clamp on xenopus oocytes). Details: TASK-1 expressed in Xenopus laevis oocytes; percent inhibition of control current fitted with Hill equation; room temperature; read-out: mTask-1 IC-50.
Type: cell-based
Procedure: Determination of the Activity on the TASK-1 Channel
Human TASK-1 channels were expressed in xenopus oocytes. For this purpose, firstly oocytes were isolated from Xenopus laevis and defolliculated. TASK-1-encoding RNA synthesized in vitro was then injected into these oocytes. After TASK-1 protein expression for 2 days, TASK-1 currents were measured on the oocytes using the two-microelectrode voltage clamp technique. The TASK-1 channels were in this case usually activated with voltage jumps lasting 250 ms to 40 mV. A solution of the following composition flowed through the bath: NaCl 96 mM, KCl 2 mM, CaCl2 1.8 mM, MgCl2 1 mM, HEPES 5 mM (titrated to pH 7.4 with NaOH). These experiments were carried out at room temperature. The following were employed for data acquisition and analysis: Geneclamp amplifier (Axon Instruments, Foster City, USA) and MacLab D/A converter and software (ADinstruments, Castle Hill, Australia). The substances of the invention were tested by adding them in various concentrations to the bath solution. The effects of the substances were calculated as percent inhibition of the TASK-1 control current which was obtained when no substance was added to the solution. The data were then extrapolated using the Hill equation in order to determine the half-maximum inhibitory concentrations (IC50) for the respective substances.
In the case of `O=c1ccccn1[C@@H](c1ccc(F)cc1)[C@H](OCC1CC1)c1ccc(F)cc1` (racemic) [Example 9, 1R′,2S′-1-[2-Cyclopropylmethoxy-1,2-bis-(4-fluorophenyl)ethyl]-1H-pyridin-2-one], the IC50 is reported as 3100 nM.

What follows are compounds tested against T1, Human Kv1.5 channels (Homo sapiens, UniProt P22460) (assay: Activity on the Kv1.5 channel, two-microelectrode voltage clamp on xenopus oocytes). Details: human Kv1.5 expressed in Xenopus laevis oocytes; percent inhibition of control current fitted with Hill equation; room temperature; read-out: Kv1.5 IC-50.
T1 construct: expressed in transfected cells; host or cells: Xenopus laevis oocytes (injection of RNA synthesized in vitro)
T1 sequence (P22460 whole entry): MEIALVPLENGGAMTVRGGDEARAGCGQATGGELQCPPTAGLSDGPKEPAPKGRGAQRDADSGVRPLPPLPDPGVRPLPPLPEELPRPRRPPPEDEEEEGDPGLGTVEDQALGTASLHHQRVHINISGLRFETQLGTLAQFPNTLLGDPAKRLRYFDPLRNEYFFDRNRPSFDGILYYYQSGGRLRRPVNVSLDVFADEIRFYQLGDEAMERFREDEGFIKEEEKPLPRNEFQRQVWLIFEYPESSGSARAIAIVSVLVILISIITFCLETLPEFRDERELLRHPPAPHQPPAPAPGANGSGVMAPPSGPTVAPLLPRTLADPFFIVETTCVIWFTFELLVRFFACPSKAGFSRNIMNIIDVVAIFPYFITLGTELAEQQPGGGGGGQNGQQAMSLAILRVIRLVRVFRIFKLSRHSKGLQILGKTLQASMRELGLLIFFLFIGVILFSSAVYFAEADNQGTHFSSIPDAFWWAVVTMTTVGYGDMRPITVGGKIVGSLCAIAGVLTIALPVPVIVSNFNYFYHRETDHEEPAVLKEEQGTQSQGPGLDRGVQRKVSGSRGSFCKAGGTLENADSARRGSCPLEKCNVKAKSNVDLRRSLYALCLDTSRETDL
Type: cell-based
Procedure: Determination of the Activity on the Kv1.5 Channel
Human Kv1.5 channels were expressed in xenopus oocytes. For this purpose, firstly oocytes were isolated from Xenopus laevis and defolliculated. Kv1.5-encoding RNA synthesized in vitro was then injected into these oocytes. After Kv1.5 protein expression for 1-7 days, Kv1.5 currents were measured on the oocytes using the two-microelectrode voltage clamp technique. The Kv1.5 channels were in this case usually activated with voltage jumps lasting 500 ms to 0 mV and 40 mV. A solution of the following composition flowed through the bath: NaCl 96 mM, KCl 2 mM, CaCl2 1.8 mM, MgCl2 1 mM, HEPES 5 mM (titrated to pH 7.4 with NaOH). These experiments were carried out at room temperature. The following were employed for data acquisition and analysis: Geneclamp amplifier (Axon Instruments, Foster City, USA) and MacLab D/A converter and software (ADinstruments, Castle Hill, Australia). The substances of the invention were tested by adding them in various concentrations to the bath solution. The effects of the substances were calculated as percent inhibition of the Kv1.5 control current which was obtained when no substance was added to the solution. The data were then extrapolated using the Hill equation in order to determine the inhibitory concentrations IC50 for the respective substances.
Work on `O=c1ccccn1[C@H](c1ccccc1)[C@H](OCC1CC1)c1ccccc1` (racemic) [Example 1, 1R′,2R′-1-(2-Cyclopropylmethoxy-1,2-diphenylethyl)-1H-pyridin-2-one] yielded an IC50 of 380 nM. For `COc1ccc([C@@H](OCC2CC2)[C@H](c2ccc(F)cc2)n2ccccc2=O)cc1` (racemic) [Example 2, 1R′,2S′-1-[2-Cyclopropylmethoxy-1-(4-fluorophenyl)-2-(4-methoxy-phenyl)ethyl]-1H-pyridin-2-one], the IC50 was 1300 nM. With `O=c1ccc(F)cn1C(c1ccccc1)C(OCC1CC1)c1ccccc1` (racemic) [Example 3, 1-(2-Cyclopropylmethoxy-1,2-diphenylethyl)-5-fluoro-1H-pyridin-2-one] the IC50 was 780 nM. Work on `O=c1cccnn1C(c1ccccc1)C(OCC1CC1)c1ccc(Cl)cc1` (racemic) [Example 4, 2-[2-(4-Chlorophenyl)-2-cyclopropylmethoxy-1-phenylethyl]-2H-pyridazin-3-one] yielded an IC50 of 1050 nM. With `N#Cc1ccc(O[C@H](c2ccc(F)cc2)[C@@H](c2ccc(F)cc2)n2cc(F)ccc2=O)cc1` (racemic) [Example 5, 1R′,2R′-5-Fluoro-1-(2-p-cyanophenoxy-1,2-di-p-fluorophenylethyl)-1H-pyridin-2-one] the IC50 was 20000 to 50000 nM. `O=c1ccc(F)cn1C(c1ccc(F)cc1)C(OC1CC1)c1ccc(F)cc1` (racemic) [Example 6, 1-[2-Cyclopropoxy-1,2-bis-(4-fluorophenyl)ethyl]-5-fluoro-1H-pyridin-2-one] gave an IC50 of 6480 nM. `O=c1ccccn1C(c1ccccc1)C(OCC1CC1)c1ccc(Cl)cc1` (racemic) [Example 7, 1-[2-(4-Chlorophenyl)-2-cyclopropylmethoxy-1-phenylethyl]-1H-pyridin-2-one] was tested, and the IC50 was 180 nM. Compound `O=c1ccccn1[C@H](c1ccc(F)cc1)[C@H](OCC1CC1)c1ccc(F)cc1` (racemic) [Example 8, 1R′,2R′-1-[2-Cyclopropylmethoxy-1,2-bis(4-fluorophenyl)ethyl]-1H-pyridin-2-one] has an IC50 of 330 nM. `O=c1ccccn1[C@@H](c1ccc(F)cc1)[C@H](OCC1CC1)c1ccc(F)cc1` (racemic) [Example 9, 1R′,2S′-1-[2-Cyclopropylmethoxy-1,2-bis-(4-fluorophenyl)ethyl]-1H-pyridin-2-one] showed an IC50 of 410 nM. Compound `O=c1ccccn1C(c1ccc(F)cc1)C(OCC1CC1)c1ccc(Br)cc1` (racemic) [Example 10, 1-[2-(4-Bromophenyl)-2-cyclopropylmethoxy-1-(4-fluorophenyl)ethyl]-1H-pyridin-2-one] has an IC50 of 870 nM. Compound `N#Cc1ccc(C(OCC2CC2)C(c2ccc(F)cc2)n2ccccc2=O)cc1` (racemic) [Example 11, 4-[1-Cyclopropylmethoxy-2-(4-fluorophenyl)-2-(2-oxo-2H-pyridin-1-yl)ethyl]benzonitrile] has an IC50 of 2030 nM. In the case of `O=c1ccc(F)cn1[C@H](c1ccccc1)[C@H](OCC1CC1)c1ccccc1` (racemic) [Example 12, 1R′,2R′-1-(2-Cyclopropylmethoxy-1,2-diphenylethyl)-5-fluoro-1H-pyridin-2-one], the IC50 is reported as 1470 nM. Compound `COc1ccc(CO[C@H](c2ccc(OC)cc2)[C@@H](c2ccc(F)cc2)n2ccccc2=O)cc1` (racemic) [Example 13, 1R′,2R′-1-[1-(4-Fluorophenyl)-2-(4-methoxybenzyloxy)-2-(4-methoxyphenyl)ethyl]-1H-pyridin-2-one] has an IC50 of 4480 nM. With `O=c1ccccn1C(c1ccc(F)cc1)C(OCC1CC1)c1ccc(F)cc1` (racemic) [Example 14, 1-[2-Cyclopropylmethoxy-1,2-bis-(4-fluorophenyl)ethyl]-1H-pyridin-2-one] the IC50 was 1400 nM. For `N#Cc1ccc(COC(c2ccc(Cl)cc2)C(c2ccccc2)n2ccccc2=O)cc1` (racemic) [Example 15, 4-[1-(4-Chlorophenyl)-2-(2-oxo-2H-pyridin-1-yl)-2-phenylethoxymethyl]benzonitrile], the IC50 was 2510 nM. For `O=c1ccc(F)cn1C(c1ccc(F)cc1)C(OCC1CC1)c1ccc(F)cc1` (racemic) [Example 16, 1-[2-Cyclopropylmethoxy-1,2-bis-(4-fluorophenyl)ethyl]-5-fluoro-1H-pyridin-2-one], the IC50 was 4560 nM. Work on `COc1ccc([C@@H](OCC2CC2)[C@@H](c2ccc(F)cc2)n2ccccc2=O)cc1` (racemic) [Example 17, 1R′,2R′-1-[2-Cyclopropylmethoxy-1-(4-fluorophenyl)-2-(4-methoxyphenyl)ethyl]-1H-pyridin-2-one] yielded an IC50 of 1830 nM. `COc1ccc(CO[C@H](c2ccc(OC)cc2)[C@H](c2ccc(F)cc2)n2ccccc2=O)cc1` (racemic) [Example 18, 1R′,2S′-1-[1-(4-Fluorophenyl)-2-(4-methoxybenzyloxy)-2-(4-methoxyphenyl)ethyl]-1H-pyridin-2-one] gave an IC50 of 2690 nM.
